# Measured values taken from US20250179000A1 (Sanford Burnham Prebys Medical Discovery Institute, priority 2021, published 2025).
# Experiments:
# Rat mGlu2 = biological target: T1, Rat mGlu2 (Rattus norvegicus, UniProt P31421); assay: mGlu receptor in vitro assay, thallium flux through GIRK channels, rat mGlu2; assay type: cell-based; details: PAM potency with EC20 glutamate
# T1 construct: expressed in transfected cells; host or cells: HEK-293 co-expressing GIRK channels
# Experimental: (§1) Human Embryonic Kidney (HEK-293) cell lines co-expressing rat mGlu receptors 2, 3, 4, 6, 7 or 8 and G protein-coupled inwardly-rectifying potassium (GIRK) channels were grown in Growth Media containing 45% DMEM, 45% F-12, 10% FBS, 20 mM HEPES, 2 mM L-glutamine, antibiotic/antimycotic, non-essential amino acids, 700 μg/mL G418, and 0.6 μg/ml puromycin at 37° C. in the presence of 5% CO2. […] All cell culture reagents were purchased from Invitrogen Corp. (Carlsbad, CA) unless otherwise noted. Calcium assays were used to assess activity of compounds at mGlu1 and mGlu5, as previously described in Engers et al (J. Med. Chem. 2009, 52, 4115-4118). Calcium assays at mGlu3 were performed as described for mGlu5 with the exception that TREx293 mGlu3 Gα15 cells were treated with tetracycline at 20 ng/mL for 20 h prior to assay.
# (§2) Compound activity at the group II (mGlu2 and mGlu3) and group III (mGlu4, mGlu6, mGlu7, and mGlu8) was assessed using thallium flux through GIRK channels, a method that has been described in detail. Briefly, cells were plated into 384-well, black-walled, clear-bottomed poly-D-lysine-coated plates at a density of 15,000 cells/20 μL/well in DMEM containing 10% dialyzed FBS, 20 mM HEPES, and 100 units/mL penicillin/streptomycin (assay media). Plated cells were incubated overnight at 37° C. in the presence of 5% CO2. The following day, the medium was exchanged from the cells to assay buffer [Hanks' balanced salt solution (Invitrogen) containing 20 mM HEPES, pH 7.3] using an ELX405 microplate washer (BioTek), leaving 20 μL/well, followed by the addition of 20 μL/well FluoZin2-AM (330 nM final concentration) indicator dye (Invitrogen; prepared as a stock in DMSO and mixed in a 1:1 ratio with Pluronic acid F-127) in assay buffer. Cells were incubated for 1 h at room temperature, and the dye exchanged to assay buffer using an ELX405, leaving 20 μL/well. Test compounds were diluted to 2 times their final desired concentration in assay buffer (0.3% DMSO final concentration). Agonists were diluted in thallium buffer [125 mM sodium bicarbonate (added fresh the morning of the experiment), 1 mM magnesium sulfate, 1.8 mM calcium sulfate, 5 mM glucose, 12 mM thallium sulfate, and 10 mM HEPES, pH 7.3] at 5 times the final concentration to be assayed. Cell plates and compound plates were loaded onto a kinetic imaging plate reader (FDSS 6000 or 7000; Hamamatsu Corporation, Bridgewater, NJ). Appropriate baseline readings were taken (10 images at 1 Hz; excitation, 470±20 nm; emission, 540±30 nm) and test compounds were added in a 20 μL volume and incubated for approximately 2.5 min before the addition of 10 μL of thallium buffer with or without agonist. After the addition of agonist, data were collected for approximately an additional 2.5 min. Data were analyzed using Excel (Microsoft Corp, Redmond, WA). The slope of the fluorescence increase beginning 5 s after thallium/agonist addition and ending 15 s after thallium/agonist addition was calculated, corrected to vehicle and maximal agonist control slope values, and plotted in using either XLfit (ID Business Solutions Ltd) or Prism software (GraphPad Software, San Diego, CA) to generate concentration-response curves. Potencies were calculated from fits using a four-point parameter logistic equation. For concentration-response curve experiments, compounds were serially diluted 1:3 into 10-point concentration response curves and were transferred to daughter plates using an Echo acoustic plate reformatter (Labcyte, Sunnyvale, CA). Test compounds were applied and followed by EC20 concentrations of glutamate.
# Rat mGlu3 = biological target: T2, Rat mGlu3 (Rattus norvegicus, UniProt P31422); assay: mGlu receptor in vitro assay (thallium flux through GIRK channels / calcium assay), rat mGlu3; assay type: cell-based; details: PAM potency with EC20 glutamate
# T2 construct: expressed in transfected cells; host or cells: HEK-293 co-expressing GIRK channels
# Experimental: as §1, §2
# T1 sequence (P31421 19-872): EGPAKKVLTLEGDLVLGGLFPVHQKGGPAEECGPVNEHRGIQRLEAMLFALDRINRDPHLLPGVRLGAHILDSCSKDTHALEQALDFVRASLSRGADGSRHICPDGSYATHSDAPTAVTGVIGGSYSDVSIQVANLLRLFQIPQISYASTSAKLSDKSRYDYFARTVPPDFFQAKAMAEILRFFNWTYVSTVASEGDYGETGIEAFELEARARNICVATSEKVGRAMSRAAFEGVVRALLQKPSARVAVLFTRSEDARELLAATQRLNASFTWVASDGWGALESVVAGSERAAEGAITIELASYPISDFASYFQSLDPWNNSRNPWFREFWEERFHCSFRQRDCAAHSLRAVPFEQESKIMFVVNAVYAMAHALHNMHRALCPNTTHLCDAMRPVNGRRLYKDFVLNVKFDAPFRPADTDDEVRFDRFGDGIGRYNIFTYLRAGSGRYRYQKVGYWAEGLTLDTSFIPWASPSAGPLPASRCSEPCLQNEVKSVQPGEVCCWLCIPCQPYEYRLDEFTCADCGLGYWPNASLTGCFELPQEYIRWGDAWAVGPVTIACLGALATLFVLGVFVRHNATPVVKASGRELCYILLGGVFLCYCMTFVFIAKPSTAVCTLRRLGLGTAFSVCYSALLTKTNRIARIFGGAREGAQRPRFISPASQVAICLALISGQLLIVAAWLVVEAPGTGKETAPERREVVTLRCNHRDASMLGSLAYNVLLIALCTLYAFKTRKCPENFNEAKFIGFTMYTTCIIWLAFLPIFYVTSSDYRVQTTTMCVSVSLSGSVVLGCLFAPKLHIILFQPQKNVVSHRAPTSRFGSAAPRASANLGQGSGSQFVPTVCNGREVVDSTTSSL
# T2 sequence (P31422 23-879): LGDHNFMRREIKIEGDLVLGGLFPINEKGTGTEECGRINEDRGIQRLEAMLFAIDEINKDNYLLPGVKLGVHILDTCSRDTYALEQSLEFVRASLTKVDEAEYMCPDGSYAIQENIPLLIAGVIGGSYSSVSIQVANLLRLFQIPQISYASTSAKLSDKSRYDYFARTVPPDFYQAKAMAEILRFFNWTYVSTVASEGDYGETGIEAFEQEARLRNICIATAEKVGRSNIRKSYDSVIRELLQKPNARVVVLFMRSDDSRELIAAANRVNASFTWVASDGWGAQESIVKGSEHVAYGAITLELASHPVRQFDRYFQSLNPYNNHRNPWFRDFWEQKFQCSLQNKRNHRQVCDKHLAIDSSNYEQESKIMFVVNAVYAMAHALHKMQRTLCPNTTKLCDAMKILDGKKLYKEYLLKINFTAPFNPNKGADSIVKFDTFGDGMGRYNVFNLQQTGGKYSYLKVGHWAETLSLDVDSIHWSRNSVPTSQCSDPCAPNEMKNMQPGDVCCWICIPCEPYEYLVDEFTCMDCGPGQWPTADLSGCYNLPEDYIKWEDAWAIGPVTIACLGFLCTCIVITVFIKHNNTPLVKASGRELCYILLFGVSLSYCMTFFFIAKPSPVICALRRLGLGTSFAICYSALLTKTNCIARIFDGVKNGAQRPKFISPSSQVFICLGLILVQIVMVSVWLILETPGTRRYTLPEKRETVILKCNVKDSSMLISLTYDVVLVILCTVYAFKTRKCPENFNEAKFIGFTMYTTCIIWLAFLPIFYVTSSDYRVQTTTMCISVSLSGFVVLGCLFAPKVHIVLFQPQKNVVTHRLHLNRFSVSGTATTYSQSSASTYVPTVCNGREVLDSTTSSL
EC50 (Rat mGlu2),EC50 (Rat mGlu3),SMILES
217 nM,281 nM,"Cc1c(OCc2cncc(-c3cccc(C(=O)O)c3)n2)ccc(C(=O)CC(C)(C)C)c1O [compound 112, 3-(6-((4-(3,3-Dimethylbutanoyl)-3-hydroxy-2-methylphenoxy)methyl)pyrazin-2-yl)benzoic acid]"
2520 nM,2640 nM,"Cc1c(OCc2cnc(-c3cccc(-c4noc(=S)[nH]4)c3)cn2)ccc(C(=O)CC(C)(C)C)c1O [compound 123, 1-(2-Hydroxy-3-methyl-4-((5-(3-(5-thioxo-4,5-dihydro-1,2,4-oxadiazol-3-yl)phenyl)pyrazin-2-yl)methoxy)phenyl)-3,3-dimethylbutan-1-one]"
110 nM,> 30000 nM,"CCCC(=O)c1ccc(OCCCCCOc2cnc(C)c(C(=O)O)c2)c(C)c1O [compound 108, 5-[5-(4-Butanoyl-3-hydroxy-2-methylphenoxy)pentyloxy]-2-methylpyridine-3-carboxylic acid]"
1270 nM,333 nM,"Cc1c(OCc2cnc(-c3cccc(C(=O)NC4CC4)c3)cn2)ccc(C(=O)CC(C)(C)C)c1O [compound 113, N-Cyclopropyl-3-(5-((4-(3,3-dimethylbutanoyl)-3-hydroxy-2-methylphenoxy)methyl)pyrazin-2-yl)benzamide]"
337 nM,2530 nM,"Cc1c(SCc2cccc(-c3cccc(C(=O)O)c3)c2)ccc(C(=O)CC(C)(C)C)c1O [Example 165, 3′-(((4-(3,3-Dimethylbutanoyl)-3-hydroxy-2-methylphenyl)thio)methyl)-[1,1′-biphenyl]-3-carboxylic acid]"
782 nM,593 nM,"Cc1c(OCc2cnc(-c3cccc(C(=O)O)c3)cn2)ccc(C(=O)Cc2ccccc2)c1O [compound 121, 3-(5-((3-Hydroxy-2-methyl-4-(2-phenylacetyl)phenoxy)methyl)pyrazin-2-yl)benzoic acid]"
> 10000 nM,> 30000 nM,"Cc1c(OCCCCCOc2cccc(C(=O)O)c2C)cccc1C(=O)O [compound 98, 3-[5-(3-Carboxy-2-methylphenoxy)pentyloxy]-2-methylbenzoic acid]"
128 nM,810 nM,"Cc1c(OCCCCNc2cccc(C(=O)O)c2)ccc(C(=O)CC(C)(C)C)c1O [compound 85, 3-((4-(4-(3,3-Dimethylbutanoyl)-3-hydroxy-2-methylphenoxy)butyl)amino)benzoic acid]"
539 nM,282 nM,"Cc1c(OCc2cnc(-c3cccc(-c4nn[nH]n4)c3)cn2)ccc(C(=O)CC(C)(C)C)c1O [compound 122, 1-(4-((5-(3-(2H-Tetrazol-5-yl)phenyl)pyrazin-2-yl)methoxy)-2-hydroxy-3-methylphenyl)-3,3-dimethylbutan-1-one]"
> 10000 nM,2140 nM,"Cc1c(OCc2cnc(-c3cccc(C(=O)NS(C)(=O)=O)c3)cn2)ccc(C(=O)CC(C)(C)C)c1O [compound 126, 3-(5-((4-(3,3-Dimethylbutanoyl)-3-hydroxy-2-methylphenoxy)methyl)pyrazin-2-yl)-N-(methylsulfonyl)benzamide]"
254 nM,2140 nM,"CCCC(=O)c1ccc(OCc2cnc(-c3ccc(C(=O)O)c(Cl)c3)cn2)c(C)c1O [compound 107, 4-{5-[(4-Butanoyl-3-hydroxy-2-methylphenoxy)methyl]pyrazin-2-yl}-2-chlorobenzoic acid]"
824 nM,2550 nM,"Cc1c(OCc2cnc(-c3cccc(C(=O)O)c3)cn2)ccc(C(=O)C2CC2)c1O [compound 70, 3-(5-((4-(Cyclopropanecarbonyl)-3-hydroxy-2-methylphenoxy)methyl)pyrazin-2-yl)benzoic acid]"
769 nM,2280 nM,"Cc1c(OCc2cccc(-c3cccc(C(=O)O)c3)c2)ccc(C(=O)c2ccccc2)c1O [compound 66, 3′-((4-Benzoyl-3-hydroxy-2-methylphenoxy)methyl)-[1,1′-biphenyl]-3-carboxylic acid]"
1360 nM,> 30000 nM,"Cc1c(OCc2cccc(-c3cccc(S(N)(=O)=O)c3)c2)ccc(C(=O)CC(C)(C)C)c1O [Example 163, 3′-((4-(3,3-Dimethylbutanoyl)-3-hydroxy-2-methylphenoxy)methyl)-[1,1′-biphenyl]-3-sulfonamide]"
2480 nM,1690 nM,"Cc1c(OCc2cnc(-c3cccc(-c4noc(=O)[nH]4)c3)cn2)ccc(C(=O)CC(C)(C)C)c1O [compound 124, 3-(3-(5-((4-(3,3-Dimethylbutanoyl)-3-hydroxy-2-methylphenoxy)methyl)pyrazin-2-yl)phenyl)-1,2,4-oxadiazol-5(4H)-one]"
18 nM,> 30000 nM,"CCCC(=O)c1ccc(OCCSCCOc2ccc(C(=O)O)cc2OC)c(C)c1O [Example 15, 4-{2-[2-(4-Butanoyl-3-hydroxy-2-methylphenoxy)ethylthio]ethoxy}-3-methoxybenzoic acid]"
38 nM,73 nM,"Cc1c(OC/C=C/COc2ccc(C(=O)CC(C)(C)C)c(O)c2C)cccc1C(=O)O [Example 21, 3-{(2E)-4-[4-(3,3-Dimethylbutanoyl)-3-hydroxy-2-methylphenoxy]but-2-enyloxy}-2-methylbenzoic acid]"
391 nM,258 nM,"Cc1c(OCc2ccnc(-c3cccc(C(=O)O)c3)n2)ccc(C(=O)CC(C)(C)C)c1O [compound 114, 3-(4-((4-(3,3-Dimethylbutanoyl)-3-hydroxy-2-methylphenoxy)methyl)pyrimidin-2-yl)benzoic acid]"
663 nM,> 30000 nM,"CCCC(=O)c1ccc(OCOc2cccc(C(=O)O)c2C)c(C)c1O [compound 95, 3-[(4-Butanoyl-3-hydroxy-2-methylphenoxy)methoxy]-2-methylbenzoic acid]"
1040 nM,327 nM,"Cc1c(OCc2cnc(-c3cccc(C(=O)O)c3)cn2)ccc(C(=O)C(C)(C)C)c1O [compound 110, 3-(5-((3-Hydroxy-2-methyl-4-pivaloylphenoxy)methyl)pyrazin-2-yl)benzoic acid]"
> 10000 nM,> 30000 nM,"CCCC(=O)c1ccc(OCCCCCOc2ccc(C(=O)CCC)c(O)c2C)c(C)c1O [compound 111, 1-{4-[5-(4-Butanoyl-3-hydroxy-2-methylphenoxy)pentyloxy]-2-hydroxy-3-methylphenyl}butan-1-one]"
31 nM,1900 nM,"CCCC(=O)c1ccc(OCC#CCOc2ccc(C(=O)O)cc2OC)c(C)c1O [Example 34, 4-[4-(4-Butanoyl-3-hydroxy-2-methylphenoxy)but-2-ynyloxy]-3-methoxybenzoic acid]"
129 nM,53 nM,"COc1c(C(=O)O)cccc1-c1cnc(COc2ccc(C(=O)CC(C)(C)C)c(O)c2C)cn1 [compound 136, 3-(5-((4-(3,3-Dimethylbutanoyl)-3-hydroxy-2-methylphenoxy)methyl)pyrazin-2-yl)-2-methoxybenzoic acid]"
4 nM,2590 nM,"CCCC(=O)c1ccc(OC/C=C/COc2ccc(C(=O)O)cc2OC)c(C)c1O [Example 6, (E)-4-((4-(4-Butyryl-3-hydroxy-2-methylphenoxy)but-2-en-1-yl)oxy)-3-methoxybenzoic acid]"
> 10000 nM,> 30000 nM,"CCCC(=O)c1ccc(OCCS(=O)(=O)CCOc2cccc(C(=O)O)c2C)c(C)c1O [Example 38, 3-(2-{[2-(4-Butanoyl-3-hydroxy-2-methylphenoxy)ethyl]sulfonyl}ethoxy)-2-methylbenzoic acid]"

SMILES,EC50 (Rat mGlu2),EC50 (Rat mGlu3)
"COc1ccc(C(=O)O)cc1OCCCCOc1ccc(C(=O)Cc2ccccc2)c(O)c1C [compound 120, 3-(4-(3-Hydroxy-2-methyl-4-(2-phenylacetyl)phenoxy)butoxy)-4-methoxybenzoic acid]",220 nM,642 nM
